Experimental findings from patent US9580435B2, “Pyrrolo[2,3-D]pyrimidine derivatives as CB2 receptor agonists” (priority 2013, dated 2017) are described below.

Read-outs that look alike come from different tables or passages of the source.

Assay [1] deals with T1, human CB2 receptors (Homo sapiens, UniProt P34972).
T1 construct: expressed in transfected cells; host or cells: CHO cells
Briefly: functional cAMP assay, CHO cells expressing human CB2 receptors. The assay is classed as cell-based. As for the experimental part:
(§1) CHO cells expressing human CB1 or CB2 receptors are seeded 17-24 hours prior to the experiment 50.000 cells per well in a black 96 well plate with flat clear bottom (Corning Costar #3904) in DMEM (Invitrogen No. 31331), lx HT supplement, with 10% fetal calf serum and incubated at 5% CO2 and 37° C. in a humidified incubator. The growth medium was exchanged with Krebs Ringer Bicarbonate buffer with 1 mM IBMX and incubated at 30° C. for 30 min. Compounds were added to a final assay volume of 100 μl and incubated for 30 min at 30° C. Using the cAMP-Nano-TRF detection kit the assay (Roche Diagnostics) was stopped by the addition of 50 μl lysis reagent (Tris, NaCl, 1.5% Triton X100, 2.5% NP40, 10% NaN3) and 50 μl detection solutions (20 μM mAb Alexa700-cAMP 1:1, and 48 μM Ruthenium-2-AHA-cAMP) and shaken for 2 h at room temperature. The time-resolved energy transfer is measured by a TRF reader (Evotec Technologies GmbH), equipped with a ND:YAG laser as excitation source. The plate is measured twice with the excitation at 355 nm and at the emission with a delay of 100 ns and a gate of 100 ns, total exposure time 10 s at 730 (bandwidth 30 nm) or 645 nm (bandwidth 75 nm), respectively. The FRET signal is calculated as follows: FRET=T730-Alexa730-P(T645-B645) with P=Ru730-B730/Ru645-B645, where T730 is the test well measured at 730 nM, T645 is the test well measured at 645 nm, B730 and B645 are the buffer controls at 730 nm and 645 nm, respectively. cAMP content is determined from the function of a standard curve spanning from 10 μM to 0.13 nM cAMP.
(§2) EC50 values were determined using Activity Base analysis (ID Business Solution, Limited). The EC50 values for a wide range of cannabinoid agonists generated from this assay were in agreement with the values published in the scientific literature.
In general terms: Changes in cAMP serve as a functional read-out for many G protein-coupled receptors.

The target in assay [2] is T2, human CB1 receptors (Homo sapiens, UniProt P21554).
T2 construct: expressed in transfected cells; host or cells: CHO cells
In words: functional cAMP assay, CHO cells expressing human CB1 receptors. Type of assay: cell-based. As for the experimental part:
as §1, §2

T1 sequence (P34972 whole entry): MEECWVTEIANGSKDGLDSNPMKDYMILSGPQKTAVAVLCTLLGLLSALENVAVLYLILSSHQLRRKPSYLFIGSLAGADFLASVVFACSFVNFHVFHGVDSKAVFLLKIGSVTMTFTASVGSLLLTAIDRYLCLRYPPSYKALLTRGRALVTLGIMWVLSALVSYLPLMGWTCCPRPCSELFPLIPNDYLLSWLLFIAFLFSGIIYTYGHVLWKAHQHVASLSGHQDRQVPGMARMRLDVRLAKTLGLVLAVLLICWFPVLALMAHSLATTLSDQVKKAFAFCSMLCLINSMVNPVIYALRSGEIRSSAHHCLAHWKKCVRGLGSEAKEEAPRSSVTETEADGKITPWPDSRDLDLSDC
T2 sequence (P21554 whole entry): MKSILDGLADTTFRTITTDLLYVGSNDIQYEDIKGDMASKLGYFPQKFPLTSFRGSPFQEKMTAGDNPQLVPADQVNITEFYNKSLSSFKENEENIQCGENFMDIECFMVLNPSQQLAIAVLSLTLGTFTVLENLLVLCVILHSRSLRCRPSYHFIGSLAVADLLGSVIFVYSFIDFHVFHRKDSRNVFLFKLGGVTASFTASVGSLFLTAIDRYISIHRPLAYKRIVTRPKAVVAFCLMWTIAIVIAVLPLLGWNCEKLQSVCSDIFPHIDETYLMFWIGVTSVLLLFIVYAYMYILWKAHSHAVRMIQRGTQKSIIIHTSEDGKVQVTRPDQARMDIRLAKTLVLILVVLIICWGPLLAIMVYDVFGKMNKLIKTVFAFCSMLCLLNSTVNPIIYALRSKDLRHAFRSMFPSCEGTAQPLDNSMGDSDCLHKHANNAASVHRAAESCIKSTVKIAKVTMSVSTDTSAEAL

Usually EC50 stands for the concentration giving half of the maximal effect. On to `CC(C)(C)c1nc(N2CCC(F)(F)C2)c2ccn(Cc3ccccc3Cl)c2n1` [Example 1, 2-tert-butyl-7-[(2-chlorophenyl)methyl]-4-(3,3-difluoropyrrolidin-1-yl)pyrrolo[2,3-d]pyrimidine], for which the figures for the EC50 in assay [1] and in assay [2] were 10.1 nM and above 10 µM, respectively.
For `CC(C)(C)c1nc(N2CCC(F)(F)C2)c2ccn(Cc3ccc(F)cc3Cl)c2n1` [Example 2, 2-tert-butyl-7-[(2-chloro-4-fluorophenyl)methyl]-4-(3,3-difluoropyrrolidin-1-yl)pyrrolo[2,3-d]pyrimidine] the same measures were 26.5 nM and above 10 µM.
The corresponding values for `CC(C)(C)c1nc(N2CCC(F)(F)C2)c2ccn(Cc3ccccc3S(C)(=O)=O)c2n1` [Example 3, 2-tert-butyl-4-(3,3-difluoropyrrolidin-1-yl)-7-[(2-methylsulfonylphenyl)methyl]pyrrolo[2,3-d]pyrimidine] are 11.6 nM and above 10 µM.
For `CC(C)(C)c1nc(N2CCC(F)(F)C2)c2ccn(Cc3ccccc3C(F)(F)F)c2n1` [Example 4, 2-tert-butyl-4-(3,3-difluoropyrrolidin-1-yl)-7-[[2-(trifluoromethyl)phenyl]methyl]pyrrolo[2,3-d]pyrimidine] the same measures were 7.4 nM and above 10 µM.
With `CC(C)(C)c1nc(N2CCC(F)(F)C2)c2ccn(Cc3cccc(Cl)c3Cl)c2n1` [Example 5, 2-tert-butyl-7-[(2,3-dichlorophenyl)methyl]-4-(3,3-difluoropyrrolidin-1-yl) pyrrolo[2,3-d]pyrimidine], the concentration for a half-maximal effect (EC50) is 12.5 nM in assay [1] and above 10 µM in assay [2].
The corresponding values for `CC(C)(C)c1nc(N2CCC(F)(F)C2)c2ccn(Cc3cccnc3Cl)c2n1` [Example 6, 2-tert-butyl-7-[(2-chloropyridin-3-yl)methyl]-4-(3,3-difluoropyrrolidin-1-yl)pyrrolo[2,3-d]pyrimidine] are 12 nM and above 10 µM.
The corresponding values for `CC(C)(C)c1nc(N2CCC(F)(F)C2)c2ccn(Cc3ncccc3Cl)c2n1` [Example 7, 2-tert-butyl-7-[(3-chloropyridin-2-yl)methyl]-4-(3,3-difluoropyrrolidin-1-yl)pyrrolo[2,3-d]pyrimidine] are 4.2 nM and above 10 µM.
The corresponding values for `Cc1noc(Cn2ccc3c(N4CCC(F)(F)C4)nc(C(C)(C)C)nc32)n1` [Example 8, 5-[[2-tert-butyl-4-(3,3-difluoropyrrolidin-1-yl)pyrrolo[2,3-d]pyrimidin-7-yl]methyl]-3-methyl-1,2,4-oxadiazole] are 49.6 nM and above 10 µM.
On to `Cc1nonc1Cn1ccc2c(N3CCC(F)(F)C3)nc(C(C)(C)C)nc21` [Example 9, 3-[[2-tert-butyl-4-(3,3-difluoropyrrolidin-1-yl)pyrrolo[2,3-d]pyrimidin-7-yl]methyl]-4-methyl-1,2,5-oxadiazole], for which the figures for the EC50 in assay [1] and in assay [2] were 9.5 nM and above 10 µM, respectively.
With `Cc1nnc(Cn2ccc3c(N4CCC(F)(F)C4)nc(C(C)(C)C)nc32)o1` [Example 10, 2-[[2-tert-butyl-4-(3,3-difluoropyrrolidin-1-yl)pyrrolo[2,3-d]pyrimidin-7-yl]methyl]-5-methyl-1,3,4-oxadiazole], the EC50 in assay [1] is 29.6 nM; in assay [2] it was above 10 µM.
For `Cc1nnc(Cn2ccc3c(N4CCC(F)(F)C4)nc(C(C)(C)C)nc32)n1C` [Example 11, 2-tert-butyl-4-(3,3-difluoropyrrolidin-1-yl)-7-[(4,5-dimethyl-1,2,4-triazol-3-yl)methyl]pyrrolo[2,3-d]pyrimidine] the same measures were 30.8 nM and above 10 µM.
Regarding `Cn1nnnc1Cn1ccc2c(N3CCC(F)(F)C3)nc(C(C)(C)C)nc21` [Example 12, 2-tert-butyl-4-(3,3-difluoropyrrolidin-1-yl)-7-[(1-methyltetrazol-5-yl)methyl]pyrrolo[2,3-d]pyrimidine], the figures for the 50% effective concentration (EC50) in assay [1] and in assay [2] were 14 nM and above 10 µM, respectively.
For `CC(C)(C)c1nc(N2CCC(F)(F)C2)c2ccn(Cc3nnnn3C3CC3)c2n1` [Example 13, 2-tert-butyl-7-[(1-cyclopropyltetrazol-5-yl)methyl]-4-(3,3-difluoropyrrolidin-1-yl)pyrrolo[2,3-d]pyrimidine] the same measures were 23 nM and above 10 µM.
The corresponding values for `CC(C)(C)c1nc(N2CC3(COC3)C2)c2ccn(Cc3ccccc3Cl)c2n1` [Example 14, 6-[2-tert-butyl-7-[(2-chlorophenyl)methyl]pyrrolo[2,3-d]pyrimidin-4-yl]-2-oxa-6-azaspiro[3.3]heptane] are 15.3 nM and above 10 µM.
In the case of `Cc1noc(Cn2ccc3c(N4CC5(COC5)C4)nc(C(C)(C)C)nc32)n1` [Example 15, 6-[2-tert-butyl-7-[(3-methyl-1,2,4-oxadiazol-5-yl)methyl]pyrrolo[2,3-d]pyrimidin-4-yl]-2-oxa-6-azaspiro[3.3]heptane], the concentration for a half-maximal effect (EC50) in assay [1] (human EC50, functional cAMP assay, CHO cells expressing human CB2, read-out: EC50:CB2) is 747 nM; in assay [2], above 10 µM.
`CC(C)(C)c1nc(N2CC3(COC3)C2)c2ccn([C@H]3CCOC3)c2n1` [Example 16, 6-[2-tert-butyl-7-[(3S)-oxolan-3-yl]pyrrolo[2,3-d]pyrimidin-4-yl]-2-oxa-6-azaspiro[3.3]heptane]: the concentration for a half-maximal effect (EC50) in assay [1] was 78.7 nM; in assay [2] it was above 10 µM.
For `CC(C)(C)c1nc(N2CC3(COC3)C2)c2ccn([C@@H]3CCOC3)c2n1` [Example 17, 6-[2-tert-butyl-7-[(3R)-oxolan-3-yl]pyrrolo[2,3-d]pyrimidin-4-yl]-2-oxa-6-azaspiro[3.3]heptane] the same measures were 61.8 nM and above 10 µM.
For `CC(C)(C)c1nc(N2CC3(COC3)C2)c2ccn(Cc3ccc(F)cc3Cl)c2n1` [Example 18, 6-[2-tert-butyl-7-[(2-chloro-4-fluorophenyl)methyl]pyrrolo[2,3-d]pyrimidin-4-yl]-2-oxa-6-azaspiro[3.3]heptane] the same measures were 42.5 nM and above 10 µM.
The corresponding values for `CC(C)(C)c1nc(N2CC3(COC3)C2)c2ccn(Cc3ccccc3S(C)(=O)=O)c2n1` [Example 19, 6-[2-tert-butyl-7-[(2-methylsulfonylphenyl)methyl]pyrrolo[2,3-d]pyrimidin-4-yl]-2-oxa-6-azaspiro[3.3]heptane] are 14.6 nM and above 10 µM.
For the compound `CC(C)(C)c1nc(N2CC3(COC3)C2)c2ccn(Cc3cccnc3Cl)c2n1` [Example 20, 6-[2-tert-butyl-7-[(2-chloropyridin-3-yl)methyl]pyrrolo[2,3-d]pyrimidin-4-yl]-2-oxa-6-azaspiro[3.3]heptane], the EC50 in assay [1] is 24.2 nM; in assay [2], above 10 µM.
For `CC(C)(C)c1nc(N2CC3(COC3)C2)c2ccn(Cc3cccc(Cl)c3Cl)c2n1` [Example 21, 6-[2-tert-butyl-7-[(2,3-dichlorophenyl)methyl]pyrrolo[2,3-d]pyrimidin-4-yl]-2-oxa-6-azaspiro[3.3]heptane] the same measures were 91.4 nM and above 10 µM.
For `Cc1nonc1Cn1ccc2c(N3CC4(COC4)C3)nc(C(C)(C)C)nc21` [Example 22, 6-[2-tert-butyl-7-[(4-methyl-1,2,5-oxadiazol-3-yl)methyl]pyrrolo[2,3-d]pyrimidin-4-yl]-2-oxa-6-azaspiro[3.3]heptane] the same measures were 48.4 nM and above 10 µM.
